Laboratory results published in US20250243196A1, “CITRON KINASE INHIBITORS” (The Cleveland Clinic Foundation, priority 2021, published 2025).

Assays:
Format in all cases: biochemical
NEK3(h) = NEK3(h) (Homo sapiens (Human), UniProt P51956); assay: KinaseProfiler panel; parameters: dose or concentration left out as unconfirmed; settings: activity remaining
CaMKI(h) = CaMKI(h) (Homo sapiens (Human), UniProt Q14012); assay: KinaseProfiler panel; parameters: dose or concentration left out as unconfirmed; settings: activity remaining
DCAMKL2(h) = DCAMKL2(h) (Homo sapiens (Human), UniProt Q8N568); assay: KinaseProfiler panel; parameters: dose or concentration left out as unconfirmed; settings: activity remaining
CK2(h) = CK2(h) (Homo sapiens (Human), UniProt P68400); assay: KinaseProfiler panel; parameters: dose or concentration left out as unconfirmed; settings: activity remaining
Pyk2(h) = Pyk2(h) (Homo sapiens (Human), UniProt Q14289); assay: KinaseProfiler panel; parameters: dose or concentration left out as unconfirmed; settings: activity remaining
Tie2 (h) = Tie2 (h) (Homo sapiens (Human), UniProt Q02763); assay: KinaseProfiler panel; parameters: dose or concentration left out as unconfirmed; settings: activity remaining
MLK2(h) = MLK2(h) (Homo sapiens (Human), UniProt Q02779); assay: KinaseProfiler panel; parameters: dose or concentration left out as unconfirmed; settings: activity remaining
AAK1 = AAK1 (Homo sapiens (Human), UniProt Q2M2I8); assay: KinaseProfiler radiometric assay (16-043KP); settings: mean of at least two independent experiments
Description: In another aspect, disclosed is a method of inhibiting citron kinase in a sample, comprising contacting the sample with a compound described herein (e.g., a compound of formula (I) or a pharmaceutically acceptable salt thereof), or a pharmaceutical composition described herein (e.g., a pharmaceutical composition comprising a compound of formula (I) or a pharmaceutically acceptable salt thereof), in an amount effective to inhibit citron kinase. In some embodiments, the step of contacting the sample with the compound comprises administering the compound to a subject (e.g., a subject) suffering from cancer. Methods of determining kinase inhibition are well known in the art. For example, kinase activity of an enzyme and the inhibitory capacity of a test compound can be determined by measuring enzyme specific phosphorylation of a substrate. Commercial assays and kits can be employed. For example, kinase inhibition can be determined using a radiometric binding assay, such as using KinaseProfiler™ technology (Eurofins Discovery). This assay method directly detects product formation without the use of modified substrates or coupling enzymes. […]
The effect of various compounds on the inhibition of other kinases has also been determined. Table 2 reports measured IC50 values; value units are nanomolar inhibition.

MRCKβ(h) = MRCKβ(h) (Homo sapiens (Human), UniProt Q9Y5S2); assay: KinaseProfiler panel; parameters: dose or concentration left out as unconfirmed; settings: activity remaining
CK1γ1(h) = CK1γ1(h) (Homo sapiens (Human), UniProt Q9HCP0); assay: KinaseProfiler panel; parameters: dose or concentration left out as unconfirmed; settings: activity remaining
ATM(h) = ATM(h) (Homo sapiens (Human), UniProt Q13315); assay: KinaseProfiler panel; parameters: dose or concentration left out as unconfirmed; settings: activity remaining
EphB2(h) = EphB2(h) (Homo sapiens (Human), UniProt P29323); assay: KinaseProfiler panel; parameters: dose or concentration left out as unconfirmed; settings: activity remaining
TAF1L(h) = TAF1L(h) (Homo sapiens (Human), UniProt Q8IZX4); assay: KinaseProfiler panel; parameters: dose or concentration left out as unconfirmed; settings: activity remaining
TRB2(h) = TRB2(h) (Homo sapiens (Human), UniProt Q92519); assay: KinaseProfiler panel; parameters: dose or concentration left out as unconfirmed; settings: activity remaining
PRK2(h) = PRK2(h) (Homo sapiens (Human), UniProt Q16513); assay: KinaseProfiler panel; parameters: dose or concentration left out as unconfirmed; settings: activity remaining
NDR1(h) = NDR1(h) (Homo sapiens (Human), UniProt Q15208); assay: KinaseProfiler panel; parameters: dose or concentration left out as unconfirmed; settings: activity remaining
MLK1(h) = MLK1(h) (Homo sapiens (Human), UniProt P80192); assay: KinaseProfiler panel; parameters: dose or concentration left out as unconfirmed; settings: activity remaining
PAK6(h) = PAK6(h) (Homo sapiens (Human), UniProt Q9NQU5); assay: KinaseProfiler panel; parameters: dose or concentration left out as unconfirmed; settings: activity remaining
CaMKIIα(h) = CaMKIIα(h) (Homo sapiens (Human), UniProt Q9UQM7); assay: KinaseProfiler panel; settings: activity remaining
HRI(h) = HRI(h) (Homo sapiens (Human), UniProt Q9BQI3); assay: KinaseProfiler panel; parameters: dose or concentration left out as unconfirmed; settings: activity remaining
IGF-1R(h), activated = IGF-1R(h), activated (Homo sapiens (Human), UniProt P08069); assay: KinaseProfiler panel; parameters: dose or concentration left out as unconfirmed; settings: activity remaining
WNK4(h) = WNK4(h) (Homo sapiens (Human), UniProt Q96J92); assay: KinaseProfiler panel; parameters: dose or concentration left out as unconfirmed; settings: activity remaining
Rsk2(h) = Rsk2(h) (Homo sapiens (Human), UniProt P51812); assay: KinaseProfiler panel; parameters: dose or concentration left out as unconfirmed; settings: activity remaining
DDR1(h) = DDR1(h) (Homo sapiens (Human), UniProt Q08345); assay: KinaseProfiler panel; parameters: dose or concentration left out as unconfirmed; settings: activity remaining
CDK4/cyclinD3(h) = CDK4/cyclinD3(h) (Homo sapiens (Human), UniProt P11802); assay: KinaseProfiler panel; parameters: dose or concentration left out as unconfirmed; settings: activity remaining
PKCγ(h) = PKCγ(h) (Homo sapiens (Human), UniProt P05129); assay: KinaseProfiler panel; parameters: dose or concentration left out as unconfirmed; settings: activity remaining

Sequence of ATM(h) (Q13315 whole entry): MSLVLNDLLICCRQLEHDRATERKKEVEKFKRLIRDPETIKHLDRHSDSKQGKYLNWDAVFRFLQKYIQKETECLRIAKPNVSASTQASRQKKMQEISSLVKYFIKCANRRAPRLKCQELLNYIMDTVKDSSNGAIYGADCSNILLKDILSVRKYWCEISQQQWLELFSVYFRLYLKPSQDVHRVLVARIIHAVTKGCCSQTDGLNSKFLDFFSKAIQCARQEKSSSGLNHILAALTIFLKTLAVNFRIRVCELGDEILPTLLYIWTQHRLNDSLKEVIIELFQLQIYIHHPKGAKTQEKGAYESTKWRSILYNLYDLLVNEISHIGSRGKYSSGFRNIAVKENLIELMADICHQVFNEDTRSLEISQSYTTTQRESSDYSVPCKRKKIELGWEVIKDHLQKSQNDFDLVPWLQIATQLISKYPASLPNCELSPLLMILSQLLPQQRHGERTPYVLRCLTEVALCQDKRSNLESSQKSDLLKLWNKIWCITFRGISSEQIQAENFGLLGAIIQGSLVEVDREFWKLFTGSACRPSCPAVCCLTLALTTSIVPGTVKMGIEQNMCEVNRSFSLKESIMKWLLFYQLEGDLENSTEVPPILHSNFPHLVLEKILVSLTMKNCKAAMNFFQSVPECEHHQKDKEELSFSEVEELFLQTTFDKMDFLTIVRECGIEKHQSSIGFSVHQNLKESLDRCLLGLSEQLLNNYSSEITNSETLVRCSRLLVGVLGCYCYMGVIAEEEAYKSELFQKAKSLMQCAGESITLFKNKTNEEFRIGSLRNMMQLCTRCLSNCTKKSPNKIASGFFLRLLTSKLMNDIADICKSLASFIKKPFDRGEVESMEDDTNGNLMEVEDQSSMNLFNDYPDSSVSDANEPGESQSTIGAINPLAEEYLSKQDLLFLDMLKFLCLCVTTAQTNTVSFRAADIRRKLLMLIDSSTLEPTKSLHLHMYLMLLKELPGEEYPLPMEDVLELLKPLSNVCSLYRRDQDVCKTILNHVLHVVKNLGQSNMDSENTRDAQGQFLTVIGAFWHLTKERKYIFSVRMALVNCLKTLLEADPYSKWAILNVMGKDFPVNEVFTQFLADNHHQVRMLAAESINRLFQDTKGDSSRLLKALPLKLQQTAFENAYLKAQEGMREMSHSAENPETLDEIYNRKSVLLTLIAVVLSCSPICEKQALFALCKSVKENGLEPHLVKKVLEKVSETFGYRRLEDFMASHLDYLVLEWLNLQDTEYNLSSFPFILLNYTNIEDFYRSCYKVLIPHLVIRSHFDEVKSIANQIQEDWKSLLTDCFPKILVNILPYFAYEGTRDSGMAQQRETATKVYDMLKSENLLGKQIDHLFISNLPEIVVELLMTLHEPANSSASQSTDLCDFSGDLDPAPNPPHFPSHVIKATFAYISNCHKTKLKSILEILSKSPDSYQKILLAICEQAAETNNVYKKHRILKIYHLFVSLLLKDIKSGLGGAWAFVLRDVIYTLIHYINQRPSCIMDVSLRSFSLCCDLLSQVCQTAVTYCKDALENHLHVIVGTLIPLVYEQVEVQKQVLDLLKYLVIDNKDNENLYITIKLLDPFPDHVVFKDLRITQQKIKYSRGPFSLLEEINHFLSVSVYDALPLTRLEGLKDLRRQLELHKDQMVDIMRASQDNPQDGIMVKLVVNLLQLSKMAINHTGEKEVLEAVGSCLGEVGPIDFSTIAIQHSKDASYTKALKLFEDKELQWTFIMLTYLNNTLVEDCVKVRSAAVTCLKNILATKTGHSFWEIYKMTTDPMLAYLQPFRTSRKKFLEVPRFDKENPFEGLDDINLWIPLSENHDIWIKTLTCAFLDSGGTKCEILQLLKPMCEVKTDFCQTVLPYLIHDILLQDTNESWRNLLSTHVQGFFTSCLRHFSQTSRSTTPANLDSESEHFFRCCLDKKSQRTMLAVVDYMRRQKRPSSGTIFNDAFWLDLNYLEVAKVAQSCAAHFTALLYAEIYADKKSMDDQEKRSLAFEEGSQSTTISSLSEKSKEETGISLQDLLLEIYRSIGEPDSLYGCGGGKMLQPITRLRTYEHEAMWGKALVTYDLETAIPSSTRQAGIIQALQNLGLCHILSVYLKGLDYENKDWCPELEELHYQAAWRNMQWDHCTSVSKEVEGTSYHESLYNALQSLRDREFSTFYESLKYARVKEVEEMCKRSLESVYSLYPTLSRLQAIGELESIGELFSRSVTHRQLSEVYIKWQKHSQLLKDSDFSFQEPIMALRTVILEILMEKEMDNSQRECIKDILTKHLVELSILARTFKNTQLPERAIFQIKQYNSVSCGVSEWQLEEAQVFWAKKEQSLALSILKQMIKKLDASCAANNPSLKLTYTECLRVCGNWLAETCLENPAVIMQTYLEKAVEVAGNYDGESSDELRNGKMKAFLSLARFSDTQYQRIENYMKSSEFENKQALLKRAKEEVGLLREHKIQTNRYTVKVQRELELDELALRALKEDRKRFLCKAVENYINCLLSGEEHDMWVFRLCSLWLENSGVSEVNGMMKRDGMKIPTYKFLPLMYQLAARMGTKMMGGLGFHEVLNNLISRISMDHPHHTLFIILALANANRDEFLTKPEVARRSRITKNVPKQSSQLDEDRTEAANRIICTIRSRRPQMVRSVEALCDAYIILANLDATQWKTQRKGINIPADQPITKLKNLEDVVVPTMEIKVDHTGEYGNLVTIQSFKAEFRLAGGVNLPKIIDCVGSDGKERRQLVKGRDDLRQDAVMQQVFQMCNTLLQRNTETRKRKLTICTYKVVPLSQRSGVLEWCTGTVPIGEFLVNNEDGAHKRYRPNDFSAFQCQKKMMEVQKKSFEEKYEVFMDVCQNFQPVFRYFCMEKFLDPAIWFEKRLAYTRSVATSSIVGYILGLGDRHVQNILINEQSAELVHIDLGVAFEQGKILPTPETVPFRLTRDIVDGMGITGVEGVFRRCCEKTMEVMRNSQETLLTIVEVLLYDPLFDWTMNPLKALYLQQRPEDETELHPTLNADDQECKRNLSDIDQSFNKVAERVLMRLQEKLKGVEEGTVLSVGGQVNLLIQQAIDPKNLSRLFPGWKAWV
Sequence of CDK4/cyclinD3(h) (P11802 whole entry): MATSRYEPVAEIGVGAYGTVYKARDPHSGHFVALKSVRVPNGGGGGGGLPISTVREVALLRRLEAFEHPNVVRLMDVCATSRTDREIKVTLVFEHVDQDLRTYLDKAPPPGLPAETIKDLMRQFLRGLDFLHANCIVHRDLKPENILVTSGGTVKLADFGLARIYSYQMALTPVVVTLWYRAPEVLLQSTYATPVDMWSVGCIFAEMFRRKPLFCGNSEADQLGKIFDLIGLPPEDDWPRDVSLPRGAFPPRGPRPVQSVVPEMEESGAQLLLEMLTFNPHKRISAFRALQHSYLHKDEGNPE
Sequence of CDK4/cyclinD3(h) (P30281 whole entry partner): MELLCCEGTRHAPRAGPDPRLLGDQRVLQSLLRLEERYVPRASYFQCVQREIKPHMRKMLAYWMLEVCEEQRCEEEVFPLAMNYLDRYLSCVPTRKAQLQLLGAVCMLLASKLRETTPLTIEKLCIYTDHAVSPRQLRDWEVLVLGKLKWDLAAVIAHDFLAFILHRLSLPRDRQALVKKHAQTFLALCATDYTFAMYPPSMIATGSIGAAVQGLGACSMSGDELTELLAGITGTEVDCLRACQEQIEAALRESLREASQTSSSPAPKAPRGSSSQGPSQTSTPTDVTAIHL
Sequence of DCAMKL2(h) (Q8N568 whole entry, looked up): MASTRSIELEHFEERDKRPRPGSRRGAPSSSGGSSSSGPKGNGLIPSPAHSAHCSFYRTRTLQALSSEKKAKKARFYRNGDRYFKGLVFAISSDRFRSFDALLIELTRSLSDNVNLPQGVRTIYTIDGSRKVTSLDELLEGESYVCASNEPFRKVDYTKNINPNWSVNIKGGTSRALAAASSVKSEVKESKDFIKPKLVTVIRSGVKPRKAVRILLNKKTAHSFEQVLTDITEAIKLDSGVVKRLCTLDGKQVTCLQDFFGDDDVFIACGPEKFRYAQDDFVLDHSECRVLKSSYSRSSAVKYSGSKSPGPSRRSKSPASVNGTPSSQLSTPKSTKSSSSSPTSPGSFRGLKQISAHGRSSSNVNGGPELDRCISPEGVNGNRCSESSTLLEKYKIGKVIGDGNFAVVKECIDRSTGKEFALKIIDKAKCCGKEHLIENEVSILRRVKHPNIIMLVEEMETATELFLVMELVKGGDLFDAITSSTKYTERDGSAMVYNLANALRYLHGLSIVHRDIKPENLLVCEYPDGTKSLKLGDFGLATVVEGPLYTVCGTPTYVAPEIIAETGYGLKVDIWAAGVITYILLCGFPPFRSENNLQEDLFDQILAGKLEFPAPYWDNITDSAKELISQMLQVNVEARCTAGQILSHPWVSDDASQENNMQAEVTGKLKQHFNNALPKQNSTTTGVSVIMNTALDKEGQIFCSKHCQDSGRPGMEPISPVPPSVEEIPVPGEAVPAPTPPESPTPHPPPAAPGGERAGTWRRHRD

SMILES: Cc1cc2c(-c3ccc(NC(=O)[C@H](N)CC(C)(C)C)cc3C)ccnc2[nH]1 [Compound F-90, (2R)-2-Amino-4,4-dimethyl-N-[3-methyl-4-(2-methyl-1H-pyrrolo[2,3-b]pyridin-4-yl)phenyl]pentanamide]
- % Activity (NEK3(h)): 110%
- % Activity (CaMKI(h)): 104%
- % Activity (DCAMKL2(h)): 104%
- % Activity (CK2(h)): 112%
- % Activity (Pyk2(h)): 76%
- % Activity (Tie2 (h)): 99%
- % Activity (MLK2(h)): 77%
- IC50 (AAK1): 212 nM
- % Activity (MRCKβ(h)): 100%
- % Activity (CK1γ1(h)): 101%
- % Activity (ATM(h)): 103%
- % Activity (EphB2(h)): 96%
- % Activity (TAF1L(h)): 101%
- % Activity (TRB2(h)): 104%
- % Activity (PRK2(h)): 92%
- % Activity (NDR1(h)): 100%
- % Activity (MLK1(h)): 103%
- % Activity (PAK6(h)): 101%
- % Activity (CaMKIIα(h)): 88%
- % Activity (HRI(h)): 80%
- % Activity (IGF-1R(h), activated): 93%
- % Activity (WNK4(h)): 97%
- % Activity (Rsk2(h)): 88%
- % Activity (DDR1(h)): 98%
- % Activity (CDK4/cyclinD3(h)): 74%
- % Activity (PKCγ(h)): 97%
